Here are results for 23 compounds from patent EP0121972A2, “N-aryl-alpha-amino-carboxamides” (JANSSEN PHARMACEUTICA N.V., priority 1983, dated 1984).

The assay deals with multifocal ventricular arrhythmia. Description: Antiarrhythmic effect in dogs with ventricular arrhythmia after coronary artery ligation. It is filed as in vivo. Conditions: given intravenously; for minimal effective dose: Canis lupus familiaris, iv, lowest effective dose normalizing the cardial rhythm, about 16 hours after ligation of the anterior descendent branch of the left coronary artery, under neuroleptanalgesia, read-out: Antiarrhythmic effects in dogs LED in mg/kg body weight; for Antiarrhythmic effects in dogs duration: duration of action at the lowest effective dose, coronary-ligated dogs. As for the experimental part:
The compounds of formula (I) and their pharmaceutically acceptable acid addition salts and possible stereochemically isomeric forms thereof show excellent antiarrhythmic properties and as such they are useful in the normalization of irregular cardial rhythms. The antiarrhythmic effect of the compounds of this invention is clearly illustrated in the following experiment in dogs. The test was carried out under neuroleptanalgesia (1 ml per 10 kg body weight of fentanyl (0.4 mg/ml) and droperidol (20 mg/ml)).
The test compounds were given intravenously after a control period of 30 minutes.

Structures are written as SMILES. Counter-ions that a name gives are not always drawn.

Consider `Cc1cccc(C)c1NC(=O)C1(N(C)C)CCN(CC(O)CO)CC1` (stereo not shown) [compound 97], for which the minimal effective dose was determined as 0.31 mg/kg and the “Antiarrhythmic effects in dogs duration” value came out at 60 min.
For the compound `Cc1cccc(C)c1NC(=O)C1(N(C)C)CCN(C2CCCC2)CC1` [compound 130, l-cyclopentyl-4-(dimethylamino)-N-(2,6-dimethylphenyl)-4-piperidinecarboxamide], the minimal effective dose worked out at 0.16 mg/kg and the “Antiarrhythmic effects in dogs duration” value came out at 65 min.
Taken in the same sequence, the figures for `Cc1cccc(C)c1NC(=O)C1(N(C)C)CCN(C(C)C)CC1` [compound 132] were 0.16 mg/kg and 140 min.
On to `CCN1CCC(C(=O)Nc2c(C)cccc2C)(N(C)C)CC1` [compound 134], for which the minimal effective dose turned out to be 0.63 mg/kg and the “Antiarrhythmic effects in dogs duration” value was determined as 100 min.
Taken in the same sequence, the figures for `Cc1cccc(C)c1NC(=O)C1(N(C)C)CCN(CC2CC2)CC1` [compound 135] were 0.16 mg/kg and 190 min.
As for `CCCN1CCC(C(=O)Nc2c(C)cccc2C)(N(C)C)CC1` [compound 136], the minimal effective dose amounted to 0.16 mg/kg and the “Antiarrhythmic effects in dogs duration” value stood at 15 min.
For `CCCCN1CCC(C(=O)Nc2c(C)cccc2C)(N(C)C)CC1` [compound 137], in that order: 0.16 mg/kg and 145 min.
For `CCN(C)C1(C(=O)Nc2c(C)cccc2C)CCN(C(C)C)CC1` [compound 138], in that order: 1.25 mg/kg and 100 min.
Taken in the same sequence, the figures for `CCN(CC)C1(C(=O)Nc2c(C)cccc2C)CCN(C(C)COC)CC1` (stereo not shown) [compound 140] were 0.31 mg/kg and 220 min.
As for `CCN(CC)C1(C(=O)Nc2c(C)cccc2C)CCN(C2CCCCC2)CC1` [compound 141], the minimal effective dose worked out at 0.16 mg/kg and the “Antiarrhythmic effects in dogs duration” value was 40 min.
Taken in the same sequence, the figures for `CCN(CC)C1(C(=O)Nc2cc(Cl)ccc2C)CCN(C(C)C)CC1` [compound 143] were 0.31 mg/kg and 95 min.
Taken in the same sequence, the figures for `CCOC(=O)N1CCC(N2CCC(C(=O)Nc3c(C)cccc3C)(N(C)C)CC2)C(OC)C1` (stereo not shown) [compound 144] were 0.16 mg/kg and 40 min.
Taken in the same sequence, the figures for `CCN(CC)CCCC(C)N1CCC(C(=O)Nc2c(C)cccc2C)(N(C)C)CC1` (stereo not shown) [compound 146] were 1.25 mg/kg and 45 min.
With `C=CCN1CCC(C(=O)Nc2c(C)cccc2C)(N(C)C)CC1` [compound 162, 4-(dimethylamino)-N-(2,6-dimethylphenyl)-l-(2-propenyl)-4-piperidinecarboxamide], the minimal effective dose stood at 0.31 mg/kg and the “Antiarrhythmic effects in dogs duration” value was 25 min.
For `CCN(CC)CCN1CCC(C(=O)Nc2c(C)cccc2C)(N(C)C)CC1` [compound 163, 1-[2-(diethylamino)ethyl]-4-(dimethylamino)-N-(2,6-dimethylphenyl)-4-piperidinecarboxamide], in that order: 0.31 mg/kg and 220 min.
As to `CCN(CC)C1(C(=O)Nc2cc(Cl)ccc2C)CCN(C2CCCC2)CC1` [compound 166, N-(5-chloro-2-methylphenyl)-l-cyclopentyl-4-(diethylamino)-4-piperidinecarboxamide dihydrochloride hemihydrate], the minimal effective dose was 0.63 mg/kg and the “Antiarrhythmic effects in dogs duration” value was found to be 200 min.
Taken in the same sequence, the figures for `Cc1cccc(C)c1NC(=O)C1(N(C)C)CCN(CCO)CC1` [compound 167, 4-(dimethylamino)-N-(2,6-dimethylphenyl)-1-(2-hydroxyethyl)-4-piperidinecarboxamide] were 0.31 mg/kg and 220 min.
For `CCN(C)C1(C(=O)Nc2c(C)cccc2C)CCN(C(C)C(N)=O)CC1` (stereo not shown) [compound 174], in that order: 1.25 mg/kg and 120 min.
Taken in the same sequence, the figures for `CCNC1(C(=O)Nc2c(C)cccc2C)CCN(C(C)C)CC1` [compound 189, N-(2,6-dimethylphenyl)-4-(ethylamino)-l-(l-methylethyl)-4-piperidinecarboxamide] were 0.63 mg/kg and 175 min.
On to `Cc1cccc(C)c1NC(=O)C1(N)CCN(C2CCCC2)CC1` [compound 190, 4-amino-l-cyclopentyl-N-(2,6-dimethylphenyl)-4-piperidinecarboxamide], for which the minimal effective dose was found to be 1.25 mg/kg and the “Antiarrhythmic effects in dogs duration” value came to 110 min.
Taken in the same sequence, the figures for `Cc1cccc(C)c1NC(=O)C1(N(C)C)CCN(CC(O)CN)CC1` (stereo not shown) [compound 191, 1-(3-amino-2-hydroxypropyl)-4-(dimethylamino)-N-(2,6-dimethylphenyl)-4-piperidinecarboxamide] were 1.25 mg/kg and 20 min.
Taken in the same sequence, the figures for `Cc1cccc(C)c1NC(=O)C1(N(C)C)CCN([C@H]2CC[C@@H](O)C[C@@H]2O)CC1` [compound 202, (+)-[1-(1α,2β,4α)]-1-(2,4-dihydroxycyclohexyl)-4-(dimethylamino)-N-(2,6-dimethylphenyl)-4-piperidinecarboxamide] were 0.31 mg/kg and 5 min.
For `CCN1CCC(O)C(N2CCC(C(=O)Nc3c(C)cccc3C)(N(C)C)CC2)C1` (stereo not shown) [compound 212], in that order: 0.31 mg/kg and 60 min.
